Source: patent US20020192233A1, “Human T cell response to MHC-binding motif clusters” (priority 2000, published 2002)

Assays:
[1] = tested on: peripheral blood mononuclear cells from Mtb-immune (PPD skin-test positive) subjects; format: cell-based, human; settings: for Phil # responders (n = 38) / Phil % responders (n = 38): Philippines cohort; for Phil # responders (n = 38) / Phil % responders (n = 38) / Prov # responders (n = 22) / Prov % responders (n = 22): positive if SI≧2.0, peptide 1 and 10 μg/ml; for Prov # responders (n = 22) / Prov % responders (n = 22): Providence cohort; for number of Mtb-immune responders (proliferative response): all 40 Mtb-immune subjects; for number of Mtb-immune responders (proliferative response) / % responders among Mtb-immune subjects: SI≧2.0
[2] = tested on: peripheral blood mononuclear cells from Mtb-naïve (PPD skin-test negative) subjects; assay: Lymphoproliferation assay ([3H]thymidine, stimulation index), Mtb-naïve group; format: cell-based, human; settings: 19 Mtb-naïve controls; SI≧2.0

Substance | Phil # responders (n = 38) [1] | Phil % responders (n = 38) [1] [%] | Prov # responders (n = 22) [1] | Prov % responders (n = 22) [1] [%] | number of Mtb-immune responders (proliferative response) [1] | Mtb-naïve controls who responded [2] | % responders among Mtb-immune subjects ([1]; 40 Mtb-immune subjects) [%] | SI range [1] | Mtb-immune subjects showing an in vitro proliferative response ([1]; control antigen 5 μg/ml, 40 Mtb-immune subjects) | response to mitogen ([1]; PHA 1 μg/ml, the 41 subjects who were tested)
AELPGVDPDKDVD (listed as Mycobacterium tuberculosis) [16-3, aa 54-66 of 16 kDa Mtb protein] | 0 | 0 | 1 | 3 | one |  |  |  |  | 
ALYLLDGLRAQDD (listed as Mycobacterium tuberculosis) [32-2, aa 35-47 of 32 kDa Mtb protein (Antigen 85A)] | 3 | 8 | 2 | 5 |  |  |  |  |  | 
CEVWSNVSETISGPRLYGEM (listed as Mycobacterium tuberculosis) [14-5, aa 74-93 of 14 kDa Mtb protein] | 2 | 5 | 2 | 5 |  |  |  |  |  | 
EYWGAQLNAMKP (listed as Mycobacterium tuberculosis) [32-11, aa 265-276 of 32 kDa Mtb protein (Antigen 85A)] | 3 | 8 | 1 | 3 |  |  |  |  |  | 
FAYGSFVRTVSLPVGA (listed as Mycobacterium tuberculosis) [16-5, aa 92-107 of 16 kDa Mtb protein] | 4 | 10 | 7 | 18 | six | none | 28 |  |  | 
FSELFAAFPSFAGLRPTFDT (listed as Mycobacterium tuberculosis) [16-2, aa 17-36 of 16 kDa Mtb protein] | 4 | 10 | 1 | 3 |  |  |  |  |  | 
GILTVSVAVSEGKPTEK (listed as Mycobacterium tuberculosis) [16-6, aa 119-135 of 16 kDa Mtb protein] | 2 | 5 | 1 | 3 |  |  |  |  |  | 
GSFGSAPSNGWLKLGLVEFG (listed as Mycobacterium tuberculosis) [14-2, aa 19-38 of 14 kDa Mtb protein] | 6 | 15 | 3 | 8 | six |  |  |  |  | 
GVFDFPDSGTHSW (listed as Mycobacterium tuberculosis) [32-10, aa 252-264 of 32 kDa Mtb protein (Antigen 85A)] | 3 | 8 | 2 | 5 |  |  |  |  |  | 
IAIGGAATGIAAVLTDGNPP [19-3] | 4 | 10 | 3 | 8 | six |  |  |  |  | 
KFLEGFVRTSNIKFQD (listed as Mycobacterium tuberculosis) [32-9, aa 227-242 of 32 kDa Mtb protein (Antigen 85A)] | 3 | 8 | 3 | 8 | six |  |  |  |  | 
LAIYHPQQFVYAGAMSGLLD (listed as Mycobacterium tuberculosis) [32-7, aa 135-154 of 32 kDa Mtb protein (Antigen 85A)] | 5 | 13 | 6 | 15 | six |  |  |  |  | 
LKLGLVEFGGVAKLNAEVMS (listed as Mycobacterium tuberculosis) [14-3, aa 30-49 of 14 kDa Mtb protein] | 3 | 8 | 4 | 10 | six |  |  |  |  | 
LPVEYLQVPSPSMGR (listed as Mycobacterium tuberculosis) [32-1, aa 6-20 of 32 kDa Mtb protein (Antigen 85A)] | 3 | 8 | 2 | 5 |  |  |  |  |  | 
LTIKAERTEQK (listed as Mycobacterium tuberculosis) [16-4, aa 74-84 of 16 kDa Mtb protein] | 0 | 0 | 5 | 13 |  |  |  |  |  | 
MLGNAPSVVPNTTLGMHC (listed as Mycobacterium tuberculosis) [14-1, aa 1-18 of 14 kDa Mtb protein] | 2 | 5 | 2 | 5 |  |  |  |  |  | 
PLLNVGKLIANNTRVWVY (listed as Mycobacterium tuberculosis) [32-8, aa 193-210 of 32 kDa Mtb protein (Antigen 85A)] | 5 | 13 | 0 | 0 |  | none | 25 |  |  | 
QAVMLGTGTPNRA (listed as Mycobacterium tuberculosis) [14-4, aa 56-68 of 14 kDa Mtb protein] | 3 | 8 | 1 | 3 |  |  |  |  |  | 
QNVTGSVVCTTAAGNVN [19-2] | 3 | 8 | 4 | 10 | six |  |  |  |  | 
RHVKPTGSAVVGLSMAASSA (listed as Mycobacterium tuberculosis) [32-5, aa 113-132 of 32 kDa Mtb protein (Antigen 85A)] | 2 | 5 | 8 | 20 | six |  |  |  |  | 
RSLFPEFSELFAAFPSFAGL (listed as Mycobacterium tuberculosis) [16-1, aa 11-30 of 16 kDa Mtb protein] | 4 | 10 | 2 | 5 | six |  |  |  |  | 
SHYKITGTATGVD [19-5] | 1 | 3 | 3 | 8 |  |  |  |  |  | 
SVVMPVGGQSSFYSDW (listed as Mycobacterium tuberculosis) [32-3, aa 67-82 of 32 kDa Mtb protein (Antigen 85A)] | 5 | 13 | 2 | 5 | six |  |  |  |  | 
TFLTSELPGWLQ (listed as Mycobacterium tuberculosis) [32-4, aa 99-110 of 32 kDa Mtb protein (Antigen 85A)] | 2 | 5 | 2 | 5 |  |  |  |  |  | 
TT: tetanus toxoid, control antigen (Connaught) [reference compound] |  |  |  |  |  |  |  | 2-182 | All but six | 
VAVAGAAILVAGLSGCSSN [19-1] | 5 | 13 | 8 | 20 |  |  |  |  |  | 
VGLSMAASSALTLAIYHPQQ (listed as Mycobacterium tuberculosis) [32-6, aa 123-142 of 32 kDa Mtb protein (Antigen 85A)] | 4 | 10 | 6 | 15 | six |  |  |  |  | 
VSETISGPRLYGEMTMQGTR (listed as Mycobacterium tuberculosis) [14-6, aa 80-99 of 14 kDa Mtb protein] | 1 | 3 | 1 | 3 |  |  |  |  |  | 
VTLGYTSGTGQ (listed as Mycobacterium tuberculosis) [19-4, aa 107-117 of 19 kDa Mtb protein] | 2 | 5 | 3 | 8 |  |  |  |  |  | 
phytohemagglutinin [reference compound] |  |  |  |  |  |  |  |  |  | robust response
